≈ marks a conversion by molar mass, not a printed value.
Legend:
[1] = Saturation solubility of pure OLA and its NCs; assay type: physicochemical; conditions: thermodynamic from solid
Procedure: The excess amount of pure OLA and NCs in triplicate were added into 1 mL of each solvent in glass vials. The mixtures were vortexed for 30 s and put into an orbital shaking (at 100 stroke per min) water bath (Julabo®, Allentown, PA, USA) maintained at 37 ± 1 °C for 72 h. Thereafter, vials were taken out and kept at room temperature for 24 h to settle down the undissolved drugs. Then, the supernatants were collected, filtered by 0.45 µ filtration unit (Millipore, Molsheim, France), diluted (if needed) and 30 µL was injected into HPLC-UV system for the quantification of the dissolved drugs.

MCF-7 cells = assay: MTT or cell proliferation assay; assay type: cell-based; conditions: Homo sapiens, MCF7, 48 h, 48 h of incubation, MTT
Procedure: The MCF-7 cells were procured from the American Type Cutler Collection (Manassas, VA, USA). Cells were grown in 50 cm^2 tissue culture flasks using “Dulbecco’s Modified Eagle Medium (DMEM) (UFC Biotech, Riyadh, Saudi Arabia)” at 37 °C in an incubator humidified by 5% CO2. The media was accompanied with 10% fetal bovine serum (Alpha Chemika, Mumbai, India), 1% mixture of Penicillin (100 units·mL^−1): Streptomycin (100 µg·mL^−1) by ThermoFischer Scientific, Waltham, MA, USA, Amphotericin-B (250 ngmL^−1) by Gibco® (Grand Island, NY, USA) and 1% of L-glutamine (BioWest, Riverside, MO, USA). The MTT was purchased from Sigma Aldrich, St. Louis, MO, USA. […]
The anticancer activity of pure drug (OLA)-AqS and OLA-NCs-2 against MCF-7 were examined by assessing the viability of the treated cells by MTT assay. […] The assay was done by observing the enzymatic reduction of a water-soluble dye [3-(4,5-dimethylthiazol-2-yl)-2,5-diphenyltetrazolium bromide] into an insoluble formazan, where the quantitation of formazan designates the relative viability of the cells. […] Optical density (OD) was measured at 570 nm using the spectrophotometric microplate reader (Synergy HT, BioTek Instruments, Winooskim, VT, USA). The cell viability (%) was calculated by Equation (4). […] The IC50 values were calculated as Log (inhibitor) versus normalized response on variable slopes through GraphPad Prism V-5.1. […]

p53 = p53 by ELISA in MCF-7 cells; assay type: cell-based, human; conditions: OLA 10 µgmL^−1, vs untreated control
Procedure: (§1) The p53, Caspase-3 and Caspase-9 activities were measured by ELISA kits following the manufacture’s protocol and reported works. The MCF-7 cells (5 × 10^4 cells/well) were seeded in 96-well plates. The seeded cells were treated with the AqS of OLA-pure and OLA-NCs. The concentration of OLA was kept 10 µgmL^−1, which was approximately near to the IC50 value of the OLA-NCs-2 (9.71 µgmL^−1). The untreated cells were served as control. All the treated cells were allowed to equilibrate at ambient temperature. Approximately 100 µL of p53, Caspase-3 and Caspase-9 reagents were transferred into the respective wells of the plate containing 100 µL of culture media. The plates were covered and stirred for 1–2 min at 500 rpm and then incubated at ambient temperature. After 1 h of incubation the OD was measured at 405 nm wavelength by microplate reader.

Caspase-3 = Caspase-3 by ELISA in MCF-7 cells; assay type: cell-based, human; conditions: OLA 10 µgmL^−1, vs untreated control
Procedure: as §1

Caspase-9 = Caspase-9 by ELISA in MCF-7 cells; assay type: cell-based, human; conditions: OLA 10 µgmL^−1, vs untreated control
Procedure: as §1

[2] = Oral pharmacokinetic study in rats; assay type: in vivo, Male Wistar rats
Procedure: Male Wistar rats were used for this study. The Standing Committee of Bioethics Research (SCBR) at Prince Sattam bin Abdulaziz University, Deanship of Scientific Research has granted the animal ethical approval (SCBR-030-2022) for in vivo studies on rats. Twelve rats were divided in two groups. Group-1 for OLA-AqS and Group-II for OLA-NCs. Each animal of the respective groups received OLA-AqS and OLA-NCs individually. Oral route was selected for the administration of all OLA formulations at 25 mg·kg^−1 of body weight equivalent dose of OLA was given orally to all animals. At predetermined time points (0.25, 0.5, 1, 3, 6 and 9 h) approximately 0.5 mL of blood was aspirated through retro orbital plexus from each animal. The samples were collected in heparinized tubes and centrifuged at 6000 rpm for 10 min and at 4 °C to obtain the plasma. Approximately 200 µL supernatant (plasma) was collected and stored at −80 °C till analysis was performed.
Previously reported RP-HPLC method was used for the analysis of OLA in the plasma samples [7, 20]. In brief, the HPLC system (Waters® 1500 Series, Milford, MA, USA) was fitted out with UV-dual absorbance detector (Waters® Model-2489), Binary pump (Waters® Moel-1525), Autosampler (Waters® Model-2707 plus). The HPLC-UV system was monitored and controlled by the “Breeze software”. A C18 Waters symmetry column (150 × 4.6 mm, 5 µm, particle size) was used for the elution of OLA and Paclitaxel (used as internal standard, IS). The mobile phase composed of ammonium acetate buffer (pH was adjusted to 3.5 by Orthophosphoric acid) and Methanol at 50:50 (v/v) was pumped at isocratic mode at the flow rate of 1 mL·min^−1. The UV-detection wavelength was 254 nm (for OLA) and 230 nm (for IS). The column heater temperature was set to 35 °C and the volume of injection was 30 µL.
Protein precipitation method (simple with high recovery) was used for the drug extraction from the collected plasma samples. The calibration curve samples were prepared by pipetting 50 μL of working stock solution of OLA (in methanol) and 20 μL of IS (20 µg/mL) into 140 μL of plasma and the mixture was vortexed for 30 s. Acetonitrile (290 μL) was added into the obtained mixture for protein precipitation, vortexed for 2 min and then centrifuged at 13,500 rpm for 10 min. Approximately 200 µL of the supernatant was collected and 30 µL of the supernatant was injected into HPLC system for the quantification of the drugs in the samples.
The results were represented as mean with standard deviation (± SD), unless otherwise indicated. The statistical analysis was performed using GraphPad Prism: Version-5.1 (GraphPad Software, Inc., San Diego, CA, USA). The pharmacokinetics parameters was calculated by “PK-Solver Software, Nanjing, China using MS-Excel-2013” through the non-compartmental approach. The comparative analysis of the data was accomplished by Student’s t-test and p < 0.05 was considered as statistically significant, unless otherwise indicated.

[3] = Oral pharmacokinetic study in rats; assay type: in vivo, Male Wistar rats; remark: listed apart in the source
P-glycoprotein (Pgp) = system: P-glycoprotein (Pgp); set-up: method as in PMID 24700236; conditions: cited from earlier work
[4] = set-up: method as in PMID 24700236; conditions: cited from earlier work
[5] = male, Wistar, rat, plasma, single oral dose 25 mg·kg^−1

O=C(c1cc(Cc2n[nH]c(=O)c3ccccc23)ccc1F)N1CCN(C(=O)C2CC2)CC1 [OLA, Olaparib]
solubility ([1]; 0.1N HCl with 0.5% Soluplus, 37 °C, aqueous with cosolvent or surfactant or cyclodextrin, in 0.1N HCl (pH 1.2) with 0.5% Soluplus): 31.1 ± 3.9 µg/mL (≈ 71.6 µM) | solubility ([1]; 0.1N HCl with 0.5% Tween-80, 37 °C, aqueous with cosolvent or surfactant or cyclodextrin, in 0.1N HCl (pH 1.2) with 0.5% Tween-80): 12.7 ± 3.9 µg/mL (≈ 29.2 µM) | solubility ([1]; 37 °C, simulated gastric fluid, in 0.1N HCl (pH 1.2)): 7.1 ± 2.7 µg/mL (≈ 16.3 µM) | solubility at 72 h ([1]; phosphate buffer (PBS) with 0.5% Soluplus, pH 7.4, aqueous with cosolvent or surfactant or cyclodextrin, in PBS with 0.5% Soluplus, 37 °C): 35.6 ± 7.2 µg/mL (≈ 81.9 µM) | solubility at 72 h ([1]; phosphate buffer (PBS) with 0.5% Tween-80, pH 7.4, aqueous with cosolvent or surfactant or cyclodextrin, in PBS with 0.5% Tween-80, 37 °C): 14.2 ± 5.1 µg/mL (≈ 32.7 µM) | solubility at 72 h ([1]; phosphate buffer (PBS), pH 7.4, aqueous buffer, in PBS, 37 °C): 9.3 ± 2.4 µg/mL (≈ 21.4 µM) | IC50 (MCF-7 cells): 28.4 µg/mL | p53 protein expression, times higher than control (p53): 7.2 times | Increased activities of Caspase-3 vs control (Caspase-3): approximately 4.3 folds | Increased expression of Caspase-9 vs control (Caspase-9): ~2 folds | AUC(0-inf) [2, 5]: 913 ± 138 ng·h/mL | Tmax [2, 5]: 2 h | half-life [2, 5]: 1.36 ± 0.04 h | MRT inf ([2]; male, Wistar, rat, plasma, single oral dose 25 mg·kg^−1, read-out: MRT0-∞): 3.37 ± 0.03 h | Cmax ([2]; male, Wistar, rat, single oral dose 25 mg·kg^−1, plasma): 278 ± 46.5 ng/mL | AUMC0-∞ ([2]; single oral dose 25 mg·kg^−1): 3081.17 ± 471.32 ng·mL^−1·h^2 | Cl/F ([2]; single oral dose 25 mg·kg^−1, listed as OLA-Pure): 6.94 ± 0.96 L/h | Cl/F ([2]; single oral dose 25 mg·kg^−1, listed as OLA-pure): 6.94 L/h | AUC(0-t) ([3]; male, Wistar, rat, plasma, single oral dose 25 mg·kg^−1, read-out: AUC0–12 h): 882 ± 137 ng·h/mL | Last plasma sample in which the drug was detected ([3]; oral, undetected in 10 h and 12 h samples): up to 8 h | Concentration at which the Pgp-mediated efflux is saturated (P-glycoprotein (Pgp)): > 260 µM | Solubility at intestinal fluid pH [4]: 0.16 mg·mL^−1
